# Results published in PubChem BioAssay AID624330 (Southern Research Specialized Biocontainment Screening …, 2012).
# Molecular target: Rac GTPase-activating protein 1 (Homo sapiens) (UniProt Q9H0H5)
# Experiment: blockers of MgcRacGAP-driven Rac1 GTP hydrolysis – biochemical, ADP Hunter fluorescence, primary and confirmatory, confirmation (AID 624330);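 also: fluorescence reports GDP produced by GAP-driven GTP hydrolysis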
# Settings: MgcRacGAP-stimulated Rac1 GTP hydrolysis, GST-tagged Rac1 F28L mutant substrate
# Rac GTPase-activating protein 1 (Homo sapiens), sequence (Q9H0H5 whole entry, looked up): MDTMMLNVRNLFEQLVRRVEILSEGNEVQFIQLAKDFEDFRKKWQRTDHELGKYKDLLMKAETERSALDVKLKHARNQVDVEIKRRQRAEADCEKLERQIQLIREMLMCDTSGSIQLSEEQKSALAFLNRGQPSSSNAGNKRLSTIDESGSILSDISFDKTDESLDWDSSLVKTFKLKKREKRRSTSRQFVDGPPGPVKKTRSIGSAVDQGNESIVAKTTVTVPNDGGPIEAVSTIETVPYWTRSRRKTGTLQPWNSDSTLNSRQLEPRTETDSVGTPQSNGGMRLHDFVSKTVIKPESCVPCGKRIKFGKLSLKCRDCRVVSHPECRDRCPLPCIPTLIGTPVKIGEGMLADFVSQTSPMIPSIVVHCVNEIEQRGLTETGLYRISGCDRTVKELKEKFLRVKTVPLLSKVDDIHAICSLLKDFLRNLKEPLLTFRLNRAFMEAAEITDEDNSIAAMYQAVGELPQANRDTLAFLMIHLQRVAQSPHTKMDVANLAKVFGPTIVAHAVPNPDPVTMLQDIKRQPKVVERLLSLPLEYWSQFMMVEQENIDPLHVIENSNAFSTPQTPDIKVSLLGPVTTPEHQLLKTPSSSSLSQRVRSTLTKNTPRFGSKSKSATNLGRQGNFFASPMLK
row,IC50 [µM],Compound
1,49.6,C#CCOCCOCCOCCNc1nc(N2CCN(C(=O)CCCCCCCCCCNC(=O)[C@@H](CCSC)n3cc(CCO)nn3)CC2)nc(N2CCN(C(=O)CCCCCCCCCCNC(=O)[C@H](CO)n3cc(CCCCCN)nn3)CC2)n1
2,67.9,C#CCOCCOCCOCCNc1nc(N2CCN(C(=O)[C@H](CCCCN)n3cc([C@@H](N)C(C)CC)nn3)CC2)nc(N2CCN(C(=O)[C@H](Cc3cc4ccccc4[nH]3)n3cc([C@@H](N)C(C)CC)nn3)CC2)n1 (some centres not stated)
